Where “and” joins values, the source holds several entries; their conditions need not be identical. Identical values can stand only once. Like-named read-outs stand apart in the source and are kept apart here. *1 amine or outer side, *2 acyl side, *3 side chain or, on linkers, in order; H or OH if unused. Where a SMILES comes first, the peptide text is derived from it. Bridges are numbered along the chain shown (N, C = ends). Roman numbers before positions name the chains, in order. [ ]: non-standard residue; d: D form. Actinocin(9to1) = Cc1c2oc3c(C)ccc(C(=O)[*:1])c3nc-2c(C(=O)[*:2])c(N)c1=O; NMeV = CN[C@H](C(=O)O)C(C)C; Sar = CNCC(=O)O

The target of data set [1] is T1, GT198 (Homo sapiens, UniProt Q9P2W1).
T1 sequence (Q9P2W1 1-180): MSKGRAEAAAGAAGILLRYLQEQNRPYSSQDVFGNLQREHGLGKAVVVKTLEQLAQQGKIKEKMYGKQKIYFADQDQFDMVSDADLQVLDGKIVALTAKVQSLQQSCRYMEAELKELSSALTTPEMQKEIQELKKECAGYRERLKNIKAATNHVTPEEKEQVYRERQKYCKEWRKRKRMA
Description: In vitro DNA-binding assay of GT198 (biotinylated DNA, chemiluminescence). More on the design: Efficacy: dose or concentration left out as unconfirmed. The following applies: for Activity: NCI Approved Oncology Drug Set VII; for inhibition at 2 µM: read-out: Efficacy; for Efficacy: percent of inhibition of drugs.
Description: (§1) In order to measure GT198 activity in vitro for direct inhibition, a DNA-binding assay was developed in which recombinant GT198 proteins are coated on 96-well plates and assayed for the binding of biotin-labeled DNA in the presence of drug inhibitors. […] N-terminal His-tagged recombinant human GT198 protein without its C-terminus (aa 1–180) were expressed in E. coli BL21 (DE3) pLysS and purified through Ni-NTA-agarose (Qiagen) as previously described [33]. Proteins were eluted by 200 mM imidazole, desalted, concentrated using Amicon YM-10 spin columns, and stored at −80°C before use. Protein concentrations were determined using protein assay dye reagent concentrate solution (Bio-Rad) and 2 mg/ml bovine serum albumin (BSA) standard (Sigma).
(§2) A single-stranded 25-mer biotin-oligonucleotide (Biotin)-[sequence] was used in the assay because it is sufficient to bind one GT198 dimer. […] BSA alone was included as a control for background. No subtraction of background was needed due to very low background. Duplicated wells were used for each experimental point. Each experiment was repeated three times. The GT198-coated plates were blocked with 5% BSA in a solution containing PBS with 0.1% Triton X-100 (TPBS) for 1 h. The binding was carried out for 4 h to overnight at 4°C using 150 nM Biotin-DNA and serial diluted drugs (0.128, 0.64, 3.2, 16, 80, 400, 2,000, 10,000 nM) or herb extracts (0, 0.0384, 0.192, 0.96, 4.8, 24, 120, 600 ng/μl) in the binding buffer (20 mM TrisHCl, pH 7.5, 50 mM NaCl, 75 mM KCl, 0.5 mM MgCl2, 0.05% Triton X-100, 10% glycerol, 1 mM dithiothreitol). After binding, the plates were washed three times with TPBS solution for total 45 min. The plates were then incubated with streptavidin-conjugated HRP (Roche Molecular Biochemicals, #1089153) at 1 U/ml in TPBS for 1 h at 4°C and further washed three times with TPBS for total 30 min. […] Reading of plates was repeated three times within 45 min, and usually the second reading yielded the most consistent results. The finished plates were stained with Bio-Rad protein assay dye reagent to evaluate the bound GT198 protein on the plates.
(§3) The IC50 values were calculated through Kaleidagraph software (Synergy Software) using nonlinear regression sigmoidal dose-response curve fit. The equation for calculation is y = m1 + (m2 – m1)/[1 + (x /m3)^m4], where m1 is the minimum, m2 is the maximum, m3 is the IC50 value calculated by Kaleidagraph, and m4 is the slope at midpoint of the curve. The analysis of Vmax and Km in competitive binding assays were carried out in double-reciprocal plots, using means of four high-concentration data points, omitting points at lower concentrations with reciprocal values off-scale. […] Double-reciprocal plots reveal competitive binding as constant Vmax with increased Km in the presence of drugs or allosteric binding with reduced Vmax and constant Km in the presence of drugs.

For data set [2], the target named is T1, GT198. The data set can be described thus: biochemical.
Description: as §1, §2, §3
Data set [3] deals with T1, GT198. Set-up: this study used a C-terminal truncated version of GT198 (aa 1–180) to ensure high sensitivity of the assay; His tag (N); made in house; host or cells: E. coli BL21 (DE3) pLysS; method as in doi:10.1101/675579. The following applies: separate study ref 45; cited from earlier work.
Data set [4] deals with T2, GT198 (Hop2), C-terminally truncated (human, UniProt Q9P2W1 1-180, del181-217).
T2 sequence: T1 sequence (Q9P2W1 1-180)
Description: plate binding assay (immobilized protein, streptavidin-HRP chemiluminescence); EC50; no drug; 20 mM Tris-HCl pH 7.5, 50 mM NaCl, 75 mM KCl, 0.5 mM MgCl2, 0.05% Triton X-100, 10% glycerol, 1 mM DTT; 4 C, 4 h to overnight; 400 ng/well GT198 plus 5 ug BSA. Conditions: protein: recombinant; tags: N-terminal His; chain copies: 2; label: biotin.

Where [5] appears, read: Table 1, drugs not measured with IC50 are shown as active or inactive.
Setting [6] is: IC50, figures 2, 3, 150 nM DNA, sigmoidal curve fit, ND = not detectable.

In the case of `O=c1[nH]c(=O)n([C@H]2C[C@H](O)[C@@H](CO)O2)cc1C(F)(F)F` [Trifluridine], the “GT198 inhibition (in words)” value in data set [1] is listed as “positive inhibitors”. The Activity result in data set [1] (Supplementary Table 1) is “+”. Moreover, the “Efficacy (active or inactive)” value in data set [1] (setting [5]) was “Active”.
As to `COc1cc([C@@H]2c3cc4c(cc3[C@@H](O[C@@H]3O[C@@H]5CO[C@@H](C)O[C@H]5[C@H](O)[C@H]3O)[C@H]3COC(=O)[C@H]23)OCO4)cc(OC)c1O` [Etoposide], the IC50 in data set [2] was 24 nM. Further, in data set [1], the “GT198 inhibition (in words)” value is on record as “GT198 inhibitors” and the inhibition at 2 µM amounted to 42%. Further, in data set [1] (setting [6]), the half-inhibitory concentration (IC50) came out at 24.2 nM.
Consider `NCC(=O)CCC(=O)O` [Aminolevulinic acid], for which the “GT198 inhibition (in words)” value in data set [1] is “positive inhibitors”. In addition, in data set [1] (Supplementary Table 1), the Activity entry is on record as “+”. Besides, the “Efficacy (active or inactive)” value in data set [1] (setting [5]) is on record as “Active”.
Consider `CC[C@]1(O)C[C@H]2CN(CCc3c([nH]c4ccccc34)[C@@](C(=O)OC)(c3cc4c(cc3OC)N(C=O)[C@H]3[C@@](O)(C(=O)OC)[C@H](OC(C)=O)[C@]5(CC)C=CCN6CC[C@]43[C@@H]65)C2)C1` [Vincristine], for which the “GT198 inhibition (in words)” value in data set [1] was “negatives”. Also, in data set [1] (setting [5]), the “Efficacy (active or inactive)” value is on record as “Inactive”.
With `CO[C@H]1C(=O)[C@]2(C)[C@@H](OC)C[C@H]3OC[C@@]3(OC(C)=O)[C@H]2[C@H](OC(=O)c2ccccc2)[C@]2(O)C[C@H](OC(=O)[C@H](O)[C@@H](NC(=O)OC(C)(C)C)c3ccccc3)C(C)=C1C2(C)C` [Cabazitaxel], the “Efficacy (active or inactive)” value in data set [1] (setting [5]) was “Inactive”.
`O=C1c2c(O)ccc(O)c2C(=O)c2c(NCCNCCO)ccc(NCCNCCO)c21` [Mitoxantrone] registered an IC50 in data set [2] of 187 nM. Moreover, in data set [1], the “GT198 inhibition (in words)” value is on record as “almost complete inhibition” and the inhibition at 2 µM was found to be 90%. Moreover, the IC50 in data set [1] (setting [6]) came out at 187 nM. Further, in data set [1] (Supplementary Table 1), the Activity entry was “+” and the Efficacy is recorded as 90%.
Turning to `CCN(CC)CCNC(=O)c1c(C)[nH]c(/C=C2\C(=O)Nc3ccc(F)cc32)c1C` [Sunitinib], in data set [1], the “GT198 inhibition (in words)” value is “positive inhibitors”. Moreover, in data set [1] (Supplementary Table 1), the Activity entry is “+”. In addition, the “Efficacy (active or inactive)” value in data set [1] (setting [5]) is given as “Active”.
`CC(=O)O[C@H]1C(=O)[C@@]2(C)[C@H]([C@H](OC(=O)c3ccccc3)[C@]3(O)C[C@H](OC(=O)[C@H](O)[C@@H](NC(=O)c4ccccc4)c4ccccc4)C(C)=C1C3(C)C)[C@]1(OC(C)=O)CO[C@@H]1C[C@@H]2O` [Paclitaxel] gave an IC50 in data set [2] of 5 nM. In data set [1], the “GT198 inhibition (in words)” value is given as “GT198 inhibitors” and the inhibition at 2 µM is 32%. Moreover, the Mode of inhibition entry in data set [3] is reported as “allosteric inhibitor or noncompetitive inhibitor”.
With `CC[C@@]1(O)C(=O)OCc2c1cc1n(c2=O)Cc2cc3ccccc3nc2-1` [Camptothecin], in data set [2], the IC50 came to 2060 nM. Besides, in data set [1], the “GT198 inhibition (in words)” value is given as “very poor affinities or fail to inhibit GT198” and the inhibition at 2 µM was determined as 30%.
For `CC(C)C[C@H](NC(=O)[C@H](CCc1ccccc1)NC(=O)CN1CCOCC1)C(=O)N[C@@H](Cc1ccccc1)C(=O)N[C@@H](CC(C)C)C(=O)[C@@]1(C)CO1` [Carfilzomib], the “GT198 inhibition (in words)” value in data set [1] is reported as “positive inhibitors”. Besides, the “Efficacy (active or inactive)” value in data set [1] (setting [5]) is on record as “Active”.
As to `N.N.O=C([O-])C1(C(=O)[O-])CCC1.[Pt+2]` [Carboplatin], the “GT198 inhibition (in words)” value in data set [1] was “does not inhibit GT198”. In data set [1] (Supplementary Table 1), this molecule gave an IC50 of over 2000 nM and an Efficacy of 0%. The “Efficacy (active or inactive)” value in data set [1] (setting [5]) is reported as “Inactive”.
On to `COc1cccc2c1C(=O)c1c(O)c3c(c(O)c1C2=O)C[C@@](O)(C(=O)CO)C[C@@H]3O[C@H]1C[C@H](N)[C@@H](O)[C@H](C)O1` [Epirubicin], for which the IC50 in data set [1] (IC50) was 750 nM and 749 nM.
For the molecule `COc1cc([C@@H]2c3cc4c(cc3[C@@H](O[C@@H]3O[C@@H]5CO[C@@H](c6cccs6)O[C@H]5[C@H](O)[C@H]3O)[C@H]3COC(=O)[C@H]23)OCO4)cc(OC)c1O` [Teniposide], the “GT198 inhibition (in words)” value in data set [1] is “GT198 inhibitors”. For the same molecule, the “Efficacy (active or inactive)” value in data set [1] (setting [5]) was “Active”.
With `CCCCC(=O)OCC(=O)[C@]1(O)Cc2c(O)c3c(c(O)c2[C@@H](O[C@H]2C[C@H](NC(=O)C(F)(F)F)[C@H](O)[C@H](C)O2)C1)C(=O)c1c(OC)cccc1C3=O` [Valrubicin], the IC50 in data set [2] and in data set [1] (setting [6]) was 973 nM in each case. In data set [1], the inhibition at 2 µM was found to be 26%.
`CCc1c2c(nc3ccc(OC(=O)N4CCC(N5CCCCC5)CC4)cc13)-c1cc3c(c(=O)n1C2)COC(=O)[C@]3(O)CC` [Irinotecan]: the IC50 in data set [2] was over 2000 nM. Also, in data set [1], the “GT198 inhibition (in words)” value is given as “very poor affinities or fail to inhibit GT198” and the inhibition at 2 µM came to 10%.
Consider `Cc1c2oc3c(C)ccc(C(=O)N[C@@H]4C(=O)N[C@H](C(C)C)C(=O)N5CCC[C@H]5C(=O)N(C)CC(=O)N(C)[C@@H](C(C)C)C(=O)O[C@@H]4C)c3nc-2c(C(=O)N[C@@H]2C(=O)N[C@H](C(C)C)C(=O)N3CCC[C@H]3C(=O)N(C)CC(=O)N(C)[C@@H](C(C)C)C(=O)O[C@@H]2C)c(N)c1=O` [Dactinomycin] (I: T[dV]P[Sar][NMeV] / II: T[dV]P[Sar][NMeV]; ester I:1-I:C, II:1-II:C; linker I:N-II:N via Actinocin(9to1)), for which, in data set [1], the “Efficacy (active or inactive)” value is given as “Active” and the “GT198 inhibition (in words)” value is given as “positive inhibitors”.
Consider `CC(=O)O[C@@]12CO[C@@H]1C[C@H](O)[C@@]1(C)C(=O)[C@H](O)C3=C(C)[C@@H](OC(=O)[C@H](O)[C@@H](NC(=O)OC(C)(C)C)c4ccccc4)C[C@@](O)([C@@H](OC(=O)c4ccccc4)[C@H]21)C3(C)C` [Docetaxel], for which the “GT198 inhibition (in words)” value in data set [1] is “GT198 inhibitors”. Besides, the “Efficacy (active or inactive)” value in data set [1] (setting [5]) is on record as “Active”.
On to `CN(Cc1cnc2nc(N)nc(N)c2n1)c1ccc(C(=O)N[C@@H](CCC(=O)O)C(=O)O)cc1` [Methotrexate], for which, in data set [1], the “GT198 inhibition (in words)” value is “negatives”.
`CC[C@@]1(O)C(=O)OCc2c1cc1n(c2=O)Cc2cc3c(CN(C)C)c(O)ccc3nc2-1` [Topotecan] displayed an IC50 in data set [2] of over 2000 nM. For the same molecule, in data set [1], the “GT198 inhibition (in words)” value was “very poor affinities or fail to inhibit GT198” and the inhibition at 2 µM was found to be 4%. This molecule also registered an Efficacy in data set [1] (Supplementary Table 1) of 4%.
As for `CC1=C(O)C(=O)C=C2C1=CC=C1[C@@]2(C)CC[C@@]2(C)[C@@H]3C[C@](C)(C(=O)O)CC[C@]3(C)CC[C@]12C` [Celastrol], in data set [1], the “GT198 inhibition (in words)” value is listed as “positive” and the inhibition at 2 µM was 30%. Also, the IC50 in data set [1] (IC50) turned out to be 350 nM.
For the molecule `CO[C@H]1C[C@@H]2CC[C@@H](C)[C@@](O)(O2)C(=O)C(=O)N2CCCC[C@H]2C(=O)O[C@H]([C@H](C)C[C@@H]2CC[C@@H](O)[C@H](OC)C2)CC(=O)[C@H](C)/C=C(\C)[C@@H](O)[C@@H](OC)C(=O)[C@H](C)C[C@H](C)/C=C/C=C/C=C/1C` [Sirolimus], the “GT198 inhibition (in words)” value in data set [1] was “positive inhibitors”. For the same molecule, in data set [1] (setting [5]), the “Efficacy (active or inactive)” value was “Active”.
For `N.N.[Cl][Pt][Cl]` [Cisplatin], in data set [1] (setting [5]), the “Efficacy (active or inactive)” value is “Inactive”.
In the case of `COc1cccc2c1C(=O)c1c(O)c3c(c(O)c1C2=O)C[C@@](O)(C(C)=O)C[C@@H]3O[C@H]1C[C@H](N)[C@H](O)[C@H](C)O1` [Daunorubicin], the IC50 is 149 nM in data set [2] and 150 nM in data set [1] (setting [6]). Also, the inhibition at 2 µM in data set [1] amounted to 48%.
As to `CC(=O)[C@]1(O)Cc2c(O)c3c(c(O)c2[C@@H](O[C@H]2C[C@H](N)[C@H](O)[C@H](C)O2)C1)C(=O)c1ccccc1C3=O` [Idarubicin], the IC50 in data set [2] and in data set [1] (setting [6]) was 362 nM in each case. The inhibition at 2 µM in data set [1] stood at 56%.
Regarding CCTGGGGTTGCTGAGGTCCTGGCAG (ssDNA, biotin before the first printed base (5')) [biotin 25-mer ssDNA], the “apparent K (half saturation)” value in data set [4] was found to be 43 nM.

The term IC50 denotes the concentration that inhibits the measured activity by half.
